In experiment [1] the target is T1, hM3 (human Muscarinic receptor subtype 3) (Homo sapiens, UniProt P20309).
T1 construct: expressed in transfected cells; host or cells: CHO cells (Chinese hamster ovary cells, ATCC)
As to the kind of experiment: Human M3 calcium mobilization FLIPR assay. In kind it is cell-based. The conditions noted are these: hM3 expressed in CHO cells, intracellular Ca2+ release, read-out: hM3 EC50. How it is done:
(§1) Human M1, rat M1, human M3 and human M5 Calcium Mobilization FLIPR™ Assay
(§2) The compound activity in the present invention (EC50 or IC50) is measured using a 384 plate-based imaging assay that monitors drug induced intracellular Ca^2+ release in whole cells. Activation of hM1 (human Muscarinic receptor subtype 1, gene bank access NM_000738), rM1 (rat Muscarinic receptor subtype 1, gene bank access NM_080773), hM3 (human Muscarinic receptor subtype 3, gene bank access NM_000740NM_000740) and hM5 (human Muscarinic receptor subtype 5, gene bank access NM_0121258), receptors expressed in CHO cells (Chinese hamster ovary cells, ATCC) is quantified in a Molecular Devices FLIPR II™ instrument as an increase in fluorescent signal. Inhibition of hM3 and hM5 by compounds is determined by the decrease in fluorescent signal in response to 2 nM acetylcholine activation.
(§3) Prior to experiment, the cell culture medium is removed from the plates by inversion. […] Plates are incubated at 37° C. for 60 minutes prior to start the experiment. The incubation is terminated by washing the cells four times in assay buffer, leaving a residual 25 μl buffer per well. Cell plates are then transferred to the FLIPR, ready for compound additions.
(§4) The day of experiment, acetylcholine and compounds are diluted in assay buffer in three-fold concentration range (10 points serial dilution) for addition by FLIPR instrument. For all calcium assays, a baseline reading is taken for 10 seconds followed by the addition of 12.5 μl of compounds, resulting in a total well volume of 37.5 μl. Data is collected every second for 60 pictures and then every 6 seconds for 20 pictures prior to the addition of agonist. For hM3 and hM5, before agonist addition, a second baseline reading is taken for 10 seconds followed by the addition of 12.5 μl of agonist or buffer, producing a final volume of 50 μl. After agonist stimulation, the FLIPR continues to collect data every second for 60 pictures and then every 6 seconds for 20 pictures. The fluorescence emission is read using filter 1 (emission 510-570 nm) by the FLIPR on board CCD camera.
(§5) Calcium mobilization output data are calculated as the maximal relative fluorescence unit (RFU) minus the minimal value for both compound and agonist reading frame (except for hM1 and rM1 using only the maximal RFU). Data are analyzed using sigmoidal fits of a non-linear curve-fitting program (XLfit version 4.2.2 Excel add-in version 4.2.2 build 18 math 1Q version 2.1.2 build 18). All pEC50 and plC50 values are reported as arithmetic means ±standard error of mean of ‘n’ independent experiments.

Experiment [2] concerns the target T2, hM5 (human Muscarinic receptor subtype 5) (Homo sapiens, UniProt P08912).
T2 construct: expressed in transfected cells; host or cells: CHO cells (Chinese hamster ovary cells, ATCC)
T2 sequence (P08912 1-532): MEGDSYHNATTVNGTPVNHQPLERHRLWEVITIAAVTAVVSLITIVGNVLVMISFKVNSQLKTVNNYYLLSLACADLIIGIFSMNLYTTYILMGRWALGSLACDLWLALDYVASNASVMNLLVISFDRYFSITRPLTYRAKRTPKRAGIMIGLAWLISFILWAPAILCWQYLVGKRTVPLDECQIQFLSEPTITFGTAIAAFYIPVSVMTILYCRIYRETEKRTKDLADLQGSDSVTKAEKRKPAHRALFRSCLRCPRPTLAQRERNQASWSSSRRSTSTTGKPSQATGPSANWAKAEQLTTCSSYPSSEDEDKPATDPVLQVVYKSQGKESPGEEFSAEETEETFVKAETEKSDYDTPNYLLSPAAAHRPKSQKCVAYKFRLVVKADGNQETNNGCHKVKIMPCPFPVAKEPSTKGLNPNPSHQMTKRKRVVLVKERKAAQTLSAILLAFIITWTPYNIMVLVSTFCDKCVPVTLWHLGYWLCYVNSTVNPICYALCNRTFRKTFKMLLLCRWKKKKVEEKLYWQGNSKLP
As to the kind of experiment: Human M5 calcium mobilization FLIPR assay. In kind it is cell-based. Particulars: hM5 expressed in CHO cells, intracellular Ca2+ release, read-out: hM5 EC50. How it is done:
as §1, §2, §3, §4, §5
In general terms: Calcium assays in cells follow changes in intracellular calcium, usually with a dye or a luminescent sensor.

A value given as a limit tells only on which side of the number the result lay.

T1 sequence (P20309 whole entry): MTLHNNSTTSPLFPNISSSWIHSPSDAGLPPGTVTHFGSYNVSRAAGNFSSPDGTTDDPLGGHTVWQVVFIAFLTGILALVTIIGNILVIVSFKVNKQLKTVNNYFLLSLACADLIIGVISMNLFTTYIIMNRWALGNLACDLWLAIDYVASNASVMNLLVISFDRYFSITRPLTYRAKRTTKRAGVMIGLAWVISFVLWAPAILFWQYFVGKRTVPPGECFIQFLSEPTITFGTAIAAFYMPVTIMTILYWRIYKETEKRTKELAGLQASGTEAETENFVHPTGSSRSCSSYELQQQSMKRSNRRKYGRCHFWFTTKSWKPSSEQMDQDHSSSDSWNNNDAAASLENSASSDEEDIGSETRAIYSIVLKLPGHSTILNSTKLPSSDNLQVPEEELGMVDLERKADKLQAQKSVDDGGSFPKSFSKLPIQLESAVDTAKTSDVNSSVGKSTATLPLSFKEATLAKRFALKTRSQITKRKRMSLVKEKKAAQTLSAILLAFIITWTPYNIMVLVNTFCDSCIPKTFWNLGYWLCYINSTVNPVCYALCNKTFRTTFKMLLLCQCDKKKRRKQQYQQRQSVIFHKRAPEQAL

By EC50 is commonly meant the midpoint of the concentration-response curve. As to `CC1(N2CCC(n3c(=O)[nH]c4cc(F)ccc43)CC2)CCN(C(=O)OCCF)C1` (single isomer, unassigned) [Example 24, 2-fluoroethyl 3-(4-(5-fluoro-2-oxo-2,3-dihydro-1H-benzo[d]imidazol-1-yl)piperidin-1-yl)-3-methylpyrrolidine-1-carboxylate], the concentration giving a half-maximal response (EC50) in experiment [1] is more than 26.5 µM; in experiment [2], 1.57 µM.

`CCNC(=O)N1CCC(C)(N2CCC(n3c(=O)[nH]c4ccccc43)CC2)C1` (stereo not shown) [Example 5, N-ethyl-3-methyl-3-(4-(2-oxo-2,3-dihydro-1H-benzo[d]imidazol-1-yl)piperidin-1-yl)pyrrolidine-1-carboxamide]: the EC50 in experiment [1] is more than 40 µM; in experiment [2], more than 2.96 µM.

As for `COC(=O)N1CCC(C)(N2CCC(N3C(=O)Cc4ccc(C)cc43)CC2)C1` (single isomer, unassigned) [Example 67, methyl 3-methyl-3-(4-(6-methyl-2-oxoindolin-1-yl)piperidin-1-yl)pyrrolidine-1-carboxylate], the values for the EC50 in experiment [1] and in experiment [2] were more than 33.5 µM and more than 6.71 µM, respectively.

As for `CCOC(=O)N1CCC(C)(N2CCC(N3C(=O)Cc4ccc(F)cc43)CC2)C1` (single isomer, unassigned) [Example 75, ethyl 3-(4-(6-fluoro-2-oxoindolin-1-yl)piperidin-1-yl)-3-methylpyrrolidine-1-carboxylate], the EC50 is more than 40 µM in experiment [1] and more than 27 µM in experiment [2].

On to `C#CCOC(=O)N1CCC(C)(N2CCC(n3c(=O)[nH]c4ccc(C)cc43)CC2)C1` (single isomer, unassigned) [Example 43, prop-2-ynyl 3-methyl-3-(4-(6-methyl-2-oxo-2,3-dihydro-1H-benzo[d]imidazol-1-yl)piperidin-1-yl)pyrrolidine-1-carboxylate], for which the EC50 in experiment [1] worked out at 0.553 µM; in experiment [2], 0.205 µM.

The values above are taken from patent US20090221642A1, “MUSCARINIC RECEPTOR AGONISTS, COMPOSITIONS, METHODS OF TREATMENT THEREOF, AND PROCESSES FOR PREPARATION THEREOF-176” (AstraZeneca AB, priority 2008, published 2009).
